# Legend:
# [1] = Dynamic solubility in water, SGF, FaSSIF and FeSSIF; assay type: physicochemical; design: S (dynamic solubility): unit not given here; conditions: listed as Mucate salt crystal form A-I; for S (dynamic solubility): 37° C., feed 10 mg/mL
# Experimental: Biological solvent Preparation • 1. […] 67.5 μL of concentrated hydrochloric acid (12 M) was added and the mixture was adjusted to a pH value of 1.8 with 1 M hydrochloric acid or 1 M NaOH solution. Purified water was added to make up to volume. • 2. Preparation of Fasted State Simulated Intestinal Fluid (FaSSIF): 0.17 g of anhydrous NaH2PO4, 0.021 g of NaOH, and 0.31 g of NaCl were weighed into a 50-mL volumetric flask. About 48 mL of purified water was added to dissolve the mixture completely, and the solution was adjusted to a pH value of 6.5 with 1 M hydrochloric acid or 1 M NaOH solution. Purified water was added to make up to volume. 0.11 g of SIF powder was added and dissolved completely. • 3. Preparation of Fed State Simulated Intestinal Fluid (FeSSIF): 0.41 mL of glacial acetic acid, 0.20 g of NaOH and 0.59 g of NaCl were weighed into a 50-mL volumetric flask. About 48 mL of purified water was added to dissolve the mixture completely, and the solution was adjusted to a pH value of 5.0 with 1 M hydrochloric acid or 1 M NaOH solution. Purified water was added to make up to volume. 0.56 g of SIF powder was added and dissolved completely.
# The dynamic solubility of the free state, the mucate salt crystal form A-I, the p-toluenesulfonate salt crystal form A-II, the di-p-toluenesulfonate salt crystal form A-IV and the phosphate salt crystal form A-V of the compound of formula (I) in water and three biological solvents was evaluated.
# The samples at each time point were centrifuged and filtered (0.45 μm PTFE filter head), and the HPLC concentration and pH value of the filtrate were determined.
# [2] = Hygroscopicity by dynamic moisture sorption (DVS); assay type: physicochemical; conditions: DVS, listed as Mucate salt crystal form A-I
# Experimental: Dynamic moisture sorption (DVS): The curves were collected on a DVS Intrinsic of SMS (Surface Measurement Systems). At 25° C., the humidity range was 0% RH-95% RH, the step was 10% (the last step was 5%), and the dm/dt was 0.002%/min.
# The hygroscopicity of the free compound of formula (I), mucate salt crystal form A-I, p-toluenesulfonate salt crystal forms A-II and B-III, di-p-toluenesulfonate salt crystal form A-IV and phosphate salt crystal form A-V was evaluated by dynamic moisture sorption instrument (DVS). Starting from 0% relative humidity (0% RH), the test collected the mass change percentage of the samples under constant temperature of 25° C. with humidity changes (0% RH-95% RH-0% RH).
# [3] = Solid-state stability evaluation (XRPD, HPLC); assay type: physicochemical; conditions: listed as Mucate salt crystal form A-I
# Experimental: The following 6 test samples were placed under 25° C./60% RH and 40° C./75% RH conditions for 1 week, and then the physical and chemical stability of the samples was tested by XRPD and HPLC.
# At the same time, after the p-toluenesulfonate salt crystal form A-II and crystal form B-III solids were placed at 80° C. for 24 hours, the physical and chemical stability of the samples were tested by XRPD and HPLC.
# [4] = tested on: human lung cancer cells EBC-1; test: Efficacy in nude mouse tumor-bearing model of human lung cancer cells EBC-1; assay type: in vivo, Balb/c nude mouse
# Description: In this assay, the free compound of formula (I) of the present application and different salts of the compound prepared in Examples 1, 2 and 5 were orally administered to a nude mouse tumor-bearing model of human lung cancer cells EBC-1 to study their effects on tumor growth.
# Preparation of test compounds: an appropriate weight of the test compound (including the free form of the compound of formula (I) and different salts of the compound prepared in Examples 1, 2 and 5) was weighed, completely suspended/dissolved in an appropriate volume of 0.1% sodium carboxymethyl cellulose, stirred and vortexed to give a uniform solution or suspension.
# Methods: All assays were authorized by the Animal Welfare Committee. EBC-1 in the logarithmic growth phase was inoculated into immune-deficient nude mice (BALB/c nude, female, 6-8 weeks old, weighing 18±2 g), subcutaneously on the right back, with a cell inoculation amount of 5×10^6/mouse. After the tumor grew to 150-200 mm^3, the animals were randomly divided into groups, 6 mice per group. The dose of each test substance was set at 15 mg/kg and 7.5 mg/kg (both based on the concentration of the effective formula (I) compound), and administered once a day for about 3 weeks. The test compounds were freshly prepared each day before use. During the assay, the tumor diameter was measured twice a week, and the mice were weighed at the same time. The calculation formula of tumor volume (TV) is: TV=1/2×a×b^2, where a and b represent length and width, respectively. The relative tumor volume (RTV) was calculated based on the measurement results, and the calculation formula is: RTV=Vt/V0, wherein V0 is the tumor volume measured at the time of cage grouping and dosing initiation (i.e., d0), and Vt is the tumor volume at each measurement. The evaluation index of antitumor activity is the relative tumor proliferation rate T/C (%), calculated as follows: T/C (%)=(TRTV/CRTV)×100%, TRTV: RTV of the treatment group; CRTV: RTV of the negative control group. T and C represent the average tumor volume at a certain time point in the drug administration group and the control group, respectively.
structure (smiles),measurement,setting,value
"O=C(Nc1ccc(F)cc1)C1(C(=O)Nc2ccc(Oc3ccnc4cc(OCCCN5CCOCC5)c5c(c34)OCCO5)c(F)c2)CC1 [Example 1, N-(3-fluoro-4-((5-(3-morpholinopropoxy)-2,3-dihydro-[1,4]dioxano[2,3-f]quinolin-10-yl)oxy)phenyl)-N-(4-fluorophenyl)cyclopropane-1,1-dicarboxamide]",S (dynamic solubility),"[1]; FaSSIF, 1 hour",0.0036
same,pH of the filtrate,"[1]; FaSSIF, 1 hour",6.3
same,S (dynamic solubility),"[1]; FaSSIF, 2 hours",0.0048
same,pH of the filtrate,"[1]; FaSSIF, 2 hours",6.2
same,S (dynamic solubility),"[1]; FaSSIF, 4 hours",0.0042
same,pH of the filtrate,"[1]; FaSSIF, 4 hours",6.2
same,S (dynamic solubility),"[1]; FaSSIF, 24 hours",0.0070
same,pH of the filtrate,"[1]; FaSSIF, 24 hours",5.5
same,S (dynamic solubility),"[1]; FeSSIF, 1 hour",1.3
same,pH of the filtrate,"[1]; FeSSIF, 1 hour",4.9
same,S (dynamic solubility),"[1]; FeSSIF, 2 hours",1.6
same,pH of the filtrate,"[1]; FeSSIF, 2 hours",4.9
same,S (dynamic solubility),"[1]; FeSSIF, 4 hours",1.8
same,pH of the filtrate,"[1]; FeSSIF, 4 hours",4.9
same,S (dynamic solubility),"[1]; FeSSIF, 24 hours",1.8
same,pH of the filtrate,"[1]; FeSSIF, 24 hours",4.9
same,S (dynamic solubility),"[1]; H2O, 1 hour",0.11
same,pH of the filtrate,"[1]; H2O, 1 hour",4.5
same,S (dynamic solubility),"[1]; H2O, 2 hours",0.11
same,pH of the filtrate,"[1]; H2O, 2 hours",4.4
same,S (dynamic solubility),"[1]; H2O, 4 hours",0.13
same,pH of the filtrate,"[1]; H2O, 4 hours",4.8
same,S (dynamic solubility),"[1]; H2O, 24 hours",0.11
same,pH of the filtrate,"[1]; H2O, 24 hours",4.7
same,S (dynamic solubility),"[1]; SGF, 1 hour",5.4
same,pH of the filtrate,"[1]; SGF, 1 hour",3.1
same,S (dynamic solubility),"[1]; SGF, 2 hours",5.2
same,pH of the filtrate,"[1]; SGF, 2 hours",3.1
same,S (dynamic solubility),"[1]; SGF, 4 hours",5.1
same,pH of the filtrate,"[1]; SGF, 4 hours",3.1
same,S (dynamic solubility),"[1]; SGF, 24 hours",5.3
same,pH of the filtrate,"[1]; SGF, 24 hours",3.2
same,Moisture adsorption (25° C./80% RH),[2]; 25° C./80% RH,2.09%
same,Hygroscopicity,[2]; 25° C.,Hygroscopic
same,Purity,"[3]; 25° C./60% RH, 1 week",99.54 area %
same,Purity/initial purity,"[3]; 25° C./60% RH, 1 week",100.0%
same,Purity,"[3]; 40° C./75% RH, 1 week",99.56 area %
same,Purity/initial purity,"[3]; 40° C./75% RH, 1 week",100.0%
same,Purity,[3]; Starting,99.56 area %
same,T/C (relative tumor proliferation rate),"[4]; 7.5 mg/kg oral once a day, day 3",71.1%
same,T/C (relative tumor proliferation rate),"[4]; 7.5 mg/kg oral once a day, day 7",60.2%
same,T/C (relative tumor proliferation rate),"[4]; 7.5 mg/kg oral once a day, day 10",49.9%
same,T/C (relative tumor proliferation rate),"[4]; 7.5 mg/kg oral once a day, day 14",46.9%
same,T/C (relative tumor proliferation rate),"[4]; 7.5 mg/kg oral once a day, day 18",47.4%
same,T/C (relative tumor proliferation rate),"[4]; 7.5 mg/kg oral once a day, day 21",43.73%
same,T/C (relative tumor proliferation rate),"[4]; 15 mg/kg oral once a day, day 3",66.3%
same,T/C (relative tumor proliferation rate),"[4]; 15 mg/kg oral once a day, day 7",40.4%
same,T/C (relative tumor proliferation rate),"[4]; 15 mg/kg oral once a day, day 10",30.9%
same,T/C (relative tumor proliferation rate),"[4]; 15 mg/kg oral once a day, day 14",25.3%
same,T/C (relative tumor proliferation rate),"[4]; 15 mg/kg oral once a day, day 18",25.4%
same,T/C (relative tumor proliferation rate),"[4]; 15 mg/kg oral once a day, day 21",19.41%
